“And” between values parts separate entries of the source, which are not always exact repeats. Identical values can stand only once.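 1) Cells in 96-well plates. 2) Compound, 48 h, 5 concentrations. 3) Linear interpolation between surrounding doses. 4) Unreached endpoint = highest concentration. Here, GI50 denotes the concentration required for 50% inhibition of growth. At the TGI there is no net growth.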
Assays:
Test in all cases: inhibition of tumour cell growth, NCI panel, 48 h
T-47D breast = test system: T-47D breast
NCI-H226 lung = test system: NCI-H226 lung
HOP-92 NSCLC = test system: HOP-92 NSCLC
KM12 colon = test system: KM12 colon
DU-145 prostate = test system: DU-145 prostate
HL-60(TB) leukemia = test system: HL-60(TB) leukemia
NCI/ADR-RES ovarian = test system: NCI/ADR-RES ovarian
TK-10 renal = test system: TK-10 renal
SK-MEL-2 melanoma = test system: SK-MEL-2 melanoma
K-562 leukemia = test system: K-562 leukemia

SMILES	GI50 (T-47D breast)	TGI (T-47D breast)	GI50 (NCI-H226 lung)	TGI (NCI-H226 lung)	GI50 (HOP-92 NSCLC)	TGI (HOP-92 NSCLC)	GI50 (KM12 colon)	TGI (KM12 colon)	GI50 (DU-145 prostate)	TGI (DU-145 prostate)	GI50 (HL-60(TB) leukemia)	TGI (HL-60(TB) leukemia)	GI50 (NCI/ADR-RES ovarian)	TGI (NCI/ADR-RES ovarian)	GI50 (TK-10 renal)	TGI (TK-10 renal)	GI50 (SK-MEL-2 melanoma)	TGI (SK-MEL-2 melanoma)	TGI (K-562 leukemia)	GI50 (K-562 leukemia)
COc1cc(OC)c(/C=C/C(=O)c2ccc(Nc3ncnc4ccccc34)cc2)c(OC)c1	1.51 µM	14.3 µM	1.03 µM	3 µM	1.08 µM	3.89 µM	0.51 µM	> 43.9 µM	1.45 µM	3.42 µM	0.389 µM	2.19 µM	0.394 µM	2.55 µM	1.54 µM	3.68 µM	1.01 µM	7.36 µM	–	–
Cc1c(NC(=O)CCl)c(=O)oc2c(C)c3occc(=O)c3cc12	–	66.3 µM	–	–	–	27.5 µM	–	23.9 µM	–	74.5 µM	–	21.9 µM	–	60.8 µM	–	42.6 µM	–	–	52 µM	–
NCCOCn1cc(Cc2cccc(OCc3ccccc3)c2)c(=O)[nH]c1=O	–	–	–	> 100 µM	–	> 100 µM	–	> 100 µM	–	–	–	> 100 µM	–	–	–	> 100 µM	–	> 100 µM	> 100 µM	–
COC1CC(C)C(OC)c2cc(O)cc(c2O)NC(=O)/C(C)=C/C=C\C(C)C(OC(N)=O)/C(C)=C\C(C)C1OC (stereo not given)	0.446 µM	18.6 µM and 12.9 µM	–	24.3 µM and 24.4 µM	0.234 µM	12.1 µM and 2.79 µM	0.111 µM and 0.184 µM	1.9 µM and 2.83 µM	1.59 µM	22.4 µM and 8.94 µM	0.075 µM and 0.227 µM and 0.0937 µM	1.48 µM and 0.578 µM	–	–	2.92 µM	21.1 µM and 10.6 µM	0.683 µM and 1.16 µM	16 µM and 11.9 µM	–	0.0333 µM and 0.143 µM and 0.0785 µM
COc1ccc(-c2nsc3c2NC(=O)CC3c2ccc3c(c2)OCCO3)cc1 (stereo not given)	0.454 µM	> 100 µM	5.19 µM	> 26.6 µM	0.356 µM	> 100 µM	0.521 µM	> 100 µM	1.07 µM	> 21.6 µM	0.326 µM	12.5 µM	–	–	1.87 µM	> 100 µM	7.24 µM	> 100 µM	> 100 µM	0.367 µM
O=C(O)C(Br)C(Br)C(=O)O (stereo not given)	–	–	–	> 100 µM	–	> 100 µM	–	> 100 µM	–	> 100 µM	–	> 100 µM	–	> 100 µM	–	> 100 µM	–	> 100 µM	> 100 µM	–
O=c1/c(=C/c2c(O)ccc3ccccc23)sc2nc3ccccc3n12	–	–	–	> 100 µM	–	> 100 µM	–	> 100 µM	–	–	–	> 100 µM	–	–	–	> 100 µM	–	> 100 µM	> 100 µM	–
CCNc1cc2oc(=O)cc(C(F)(F)F)c2cc1C	–	> 100 µM	–	> 100 µM	–	> 100 µM	–	> 100 µM	–	> 100 µM	–	–	–	> 100 µM	–	> 100 µM	–	> 100 µM	> 100 µM	–
O=c1nc(NC(c2ccccc2)(c2ccccc2)c2ccccc2)ccn1CCCl	–	–	–	42.8 µM	–	27.6 µM	–	31.2 µM	–	–	–	54.9 µM	–	–	–	56.2 µM	–	29.9 µM	63.3 µM	–
Cc1ccc(-c2c(C#N)[n+](=O)c3cc(F)c(F)cc3n2[O-])cc1	28.4 µM	67.5 µM	15.7 µM	32.3 µM	1.68 µM	3.84 µM	9.9 µM	28.3 µM	14.5 µM	30.9 µM	–	–	2.83 µM	9.2 µM	2.37 µM	6.69 µM	–	–	4.29 µM	1.64 µM
COc1ccc(C(C#N)=C2C=CC(=NO)C=C2)cc1	1.76 µM	5.36 µM	3.97 µM	15.2 µM	–	–	1.79 µM	4.04 µM	1.92 µM	4.42 µM	3.08 µM	57.5 µM	3.38 µM	13.3 µM	3.87 µM	8.72 µM	2.59 µM	6.18 µM	> 100 µM	7.26 µM
CCCCCCCCCCCC[N+](C)(C)Cc1ccccc1	2.68 µM	15.5 µM	2.84 µM	18.6 µM	–	–	1.48 µM	3.14 µM	3.61 µM	13.6 µM	1.02 µM	2.85 µM	41.9 µM	> 100 µM	–	–	1.97 µM	3.6 µM	6.63 µM	1.56 µM
CC(=O)O[C@@]12CO[C@@H]1C[C@H](O)[C@@]1(C)C(=O)[C@H](O)C3=C(C)[C@@H](OC(=O)[C@H](O)[C@@H](NC(=O)OC(C)(C)C)c4ccccc4)C[C@@](O)([C@@H](OC(=O)c4ccccc4)C12)C3(C)C (stereo not given in full)	–	–	12.8 µM	> 100 µM	< 0.005 µM and 0.0181 µM	17.1 µM and 8.9 µM	< 0.005 µM	50 µM and 27.7 µM	< 0.005 µM	–	< 0.005 µM	0.0241 µM and 0.0348 µM	0.35 µM and 2.05 µM	2.77 µM and 15.4 µM	–	12.1 µM and > 100 µM	0.0355 µM	> 100 µM	50 µM	< 0.005 µM
